Values of other authors in patent publication US20240226080A1, “Pharmaceutical Mixture Comprising Amorphous Pitolisant” (Alfred E. Tiefenbacher GmbH & Co. KG, priority 2022, published 2024).
Counter-ions that a name gives are not always drawn.

How the values were obtained:
[1] = 23° C.; listed as oxalate salt
[2] = for Solubility (% w/v) Water room T: room temperature

SMILES	aqueous solubility [1] [mg/mL]	Solubility (% w/v) pH 4.5 [2]	Solubility (% w/v) pH 7.4 [2]	Solubility (% w/v) Water room T [2]
Clc1ccc(CCCOCCCN2CCCCC2)cc1 [Hydrogen oxalate, 1-[3-[3-(4-chlorophenyl)propoxy]propyl]-piperidine]	25	1-3 % w/v	3-10 % w/v	1-3 % w/v
Clc1ccc(CCCOCCCN2CCCCC2)cc1 [Monohydrochloride, 1-[3-[3-(4-chlorophenyl)propoxy]propyl]-piperidine]	–	>100 % w/v	>100 % w/v	>100 % w/v
